In patent publication US12036201B2, “Combination of a ubiquitin-conjugating enzyme complex inhibitor and antihypertensive and/or hypoglycemic drugs in diabetic kidney disease” (UNIVERSITÀ DEGLI STUDI DI BARI ALDO MORO, priority 2018, dated 2024):
Entries after “also recorded” stand apart in the source; their conditions may differ.

Experiments:
[1] = test system: immortalized human renal tubular cells HK2; conditions: in vitro cellular model of HK2 cells; Pontrelli et al. FASEB J 2017; cited from earlier work
diabetic mice (STZ) [2] = experiment: Urinary albumin analysis (Mouse Albumin ELISA Kit) in 24 h urine; type: in vivo, mice (DBA/2J); conditions: for ug urine albumin 24 h: 24 h urine
Procedure: (§1) The animal model employed is the murine model DBA/2J. 8-weeks-old mice received daily intraperitoneal injections for five consecutive days of either sodium citrate (females, control group) or streptozotocin (STZ, 45 mg/kg, pH4.5, dissolved in sodium citrate) for the study group (males). Only those animals showing a blood glucose level above 250 mg/dl were included in this study. Five weeks following the last STZ injection, animals were treated with NSC697923 dissolved in PBS (3 mg/kg, 3 times a week for 6 weeks) and/or RAMIPRIL (2 mg/kg, 3 times a week for 6 weeks) dissolved in DMSO 2% either alone or in combination [NSC697923 (3 mg/kg)+RAMIPRIL (2 mg/kg) 3 times a week for 6 weeks]. Serum and 24 h urine samples were collected at the end of the treatment. Kidney samples were collected at sacrifice and immediately fixed in formalin and embedded in paraffin.
Urinary albumin concentration was measured in the urine of these animals using the commercially available Mouse Albumin ELISA Kit (Abcam). The urinary albumin values were normalized to the total urinary protein content compared to the total volume of urines produced during the 24 h before sacrifice.

[3] = test system: α-sma expression in HK2 cells; experiment: Immunofluorescence/confocal microscopy of α-sma in HK2 cells under high glucose; type: cell-based, human; conditions: NSC697923 1 μM
Procedure: (§2) HK2 cells, a line of Renal Proximal Tubule Epithelial Cells (PTEC) obtained from a human control kidney, were purchased from the American Type Culture Collection (ATCC, Rockville, MD). Cells were cultured in DMEM growth medium low glucose (5.5 mM) with the addition of 10% fetal bovine serum (FBS), 1% Penicillin and Streptomycin and 1% L-Glutamine (Sigma-Aldrich, Munich, Germany). Prior to each passage, cells reaching confluence were rinsed with phosphate-buffered saline (PBS), trypsinized with Trypsin 0.05% and Ethylenediaminetetraacetic acid (EDTA) 0.02% in PBS and seeded in complete growth medium with or without the addition of D-Glucose 24.5 mM (final concentration in hyperglycemia HG=30 mM) or L-Glucose 24.5 mM as osmolarity control, for each predetermined time point. Cells were then incubated at 37° C. in 5% CO2.
(§3) The cellular distribution of the proteins showing lysine63-linked ubiquitylation and the expression of the mesenchymal marker α-sma was evaluated in HK2 cells through indirect immunofluorescence and confocal microscopy analysis following incubation with specific antibodies. For each condition, 150.000 cells were plated on sterile glass slides and then incubated with D- or L-Glucose 30 mM for the indicated time point. In some predetermined conditions, the specific inhibitor of Lysine63-linked ubiquitylation, NSC697923, was pre-incubated at a 1 μM final concentration, 1 h prior to the addition of glucose and/or the ACE-inhibitor Ramipril at a final concentration of 10 μM and/or the SGLT2 inhibitor Empaglifozin at a 500 nM final concentration. Following stimulation, HK2 were fixed 15 min in paraformaldehyde 4%, treated 5 min with Triton-X 100 0.1% in PBS, and incubated 1 h in blocking buffer (goat serum 4%+BSA 2%). Cells were then incubated 1 h with the specific antibodies against α-sma and lysine63 ubiquitin diluted in blocking buffer. The antigen-antibody complex was then identified using a secondary fluorescent antibody (specifically Alexa Fluor 555 goat anti-rabbit and Alexa Fluor 488 goat anti-mouse). Prior to the incubation with the secondary antibody, cells were rinsed three times in PBS. Cells nuclei were then stained using TO-PRO-3 diluted in PBS and slides were mounted. The negative control was obtained incubating cells in blocking without the addition of the primary antibody. The fluorescence signal was then acquired using the Leica TCS SP2 confocal microscope and images were saved at a 63× zoom using the microscope software. Signal was finally quantified measuring the area % of fluorescent signal compared to the background.

[4] = test system: α-sma expression in HK2 cells; experiment: Western blotting of α-sma in HK2 cells under high glucose; type: cell-based, human; conditions: Example 3, FIG. 3, high glucose 30 mM, NSC697923 1 μM, Ramipril 10 μM
Procedure: as §2
Cells were plated in six-well plates and incubated to reach confluence. Cells were then exposed to either D- or L-Glucose at a concentration of 30 mM for the indicated time point. […]
By western blotting on cultured immortalized renal tubular cells (HK2) we evaluated the protein expression levels of α-sma, a marker of epithelial-to-mesenchymal transition.

[5] = test system: Lysine 63 ubiquitinated proteins (Lys63-Ub); experiment: Immunohistochemistry of lysine 63 ubiquitinated proteins on renal tissue; type: in vivo, mice (DBA/2J); conditions: diabetic mice (STZ)
Procedure: Tissue samples were obtained from kidney of DBA/2J mice. Following sacrifice, tissues were fixed in 4% formaldehyde. In order to evaluate the accumulation of proteins undergoing Lysisine63-linked ubiquitylation through immunohistochemistry, dewaxed and unmasked sections were incubated 10 min in H2O2 and 5 min in Triton 0.25% at ambient temperature. Sections were then blocked 10 min with Protein block (Dako, Glostrup, Denmark) and then incubated 1 h with the specific antibody against and lysine63-linked ubiquitylation. […] Sections were stained with hematoxylin and slides were mounted with glycerol. The negative control sample lacks the primary antibody incubation step. The signal is then quantified using the Positive Pixel Count v9_v10.0.0.1805 algorithm (Aperio Technologies) that measures the number of […].
The animal model employed is the murine model DBA/2J. […]
(§4) Lysine 63 ubiquitinated proteins accumulation has been evaluated by immunohistochemistry on renal tissues from the mice model of diabetic nephropathy (DBA/2J mice+streptozotocin-STZ); the degree of fibrosis in these samples has been evaluated by Sirius Red Fast Green staining.

[6] = Clinical data of DBA/2J mice (controls and STZ diabetic): body weight, kidney weight, blood glucose, urinary volume; type: in vivo, mice (DBA/2J); set-up: Blood glucose at sacrifice: unit: mg/dl; conditions: for Kidney Weight: in g (unit assumed)
Procedure: as §1, with “RAMIPRIL” left out, “mg/kg)+[…]” for “mg/kg)+RAMIPRIL”

[7] = test system: Lysine 63 ubiquitinated proteins in HK2 cells; experiment: Immunofluorescence/confocal microscopy of lysine 63 ubiquitinated proteins in HK2 cells under high glucose; type: cell-based, human; conditions: high glucose 30 mM, NSC697923 1 μM
Procedure: as §2, §3

diabetic mice (STZ) [8] = experiment: Sirius Red/Fast Green staining of tubular-interstitial fibrosis in kidney; type: in vivo, mice (DBA/2J)
Procedure: Tissue samples were obtained from kidneys of DBA/2J mice following sacrifice. Tissue was fixed in 4% formaldehyde. Following dewaxing and hydration, sections were incubated with Bouin's solution overnight at ambient temperature. Sections were then rinsed using running tap water to remove all the fixative residues and incubated 1 h at ambient temperature with the Sirius Red/Fast Green dye combination 1:1.
as §1, with “Serum and 24 h urine samples were collected at the end of the treatment. Kidney samples were collected at sacrifice and immediately fixed in formalin and embedded in paraffin.” left out
as §4

[9] = Table 1, diabetic (STZ) DBA/2J mice, NSC697923 3 mg/kg 3 times a week for 6 weeks
[10] = Table 2, diabetic (STZ) DBA/2J mice, NSC697923 3 mg/kg and/or Ramipril 2 mg/kg 3 times a week for 6 weeks
[11] = Example 8, FIG. 8a, high glucose 30 mM, Empaglifozin 500 nM
[12] = Example 6, FIG. 6, compared to untreated diabetic mice or mice treated with ACE inhibitors alone
[13] = Table 1, non-diabetic DBA/2J mice, NSC697923 3 mg/kg 3 times a week for 6 weeks
[14] = Example 4, FIG. 4b, Ramipril 10 μM
[15] = Example 8, FIG. 8b, Empaglifozin 500 nM
[16] = Table 2, non-diabetic DBA/2J mice, NSC697923 3 mg/kg and/or Ramipril 2 mg/kg 3 times a week for 6 weeks

SMILES: Cc1ccc(S(=O)(=O)c2ccc([N+](=O)[O-])o2)cc1 [NSC697923, 2-(4-methylphenyl)sulfonyl-5-nitrofuran]
- epithelial to mesenchymal transition [1]: blocks
- effect on urinary albuminuria (diabetic mice (STZ) [2]; Example 2, first group of animals, treated diabetic mice (STZ+NSC697923) compared to untreated diabetic mice (STZ)): has no effect; also recorded: not able to reduce
- ug urine albumin 24 h (diabetic mice (STZ) [2]; [9]): 724.25 ± 690.89 µg
- ug urine albumin 24 h (diabetic mice (STZ) [2]; [10]): 439.29 ± 211.2 µg
- α-sma expression (confocal microscopy) [3, 11]: reduces both processes
- α-sma expression (confocal microscopy) ([3]; Examples 4 and 5, FIGS. 4a and 5, high glucose 30 mM, Ramipril 10 μM): reduces both processes; also recorded: able to inhibit
- α-sma expression (western blotting, normalized to actin) [4]: reduced
- accumulation of lysine 63 ubiquitinated proteins in kidney ([5]; Example 1, FIG. 1, NSC697923 3 mg/kg 3 times a week for 6 weeks, vs untreated STZ): significantly reduces
- accumulation of lysine 63 ubiquitinated proteins in kidney [5, 12]: significant reduction
- Blood glucose at sacrifice [6, 9]: 540.5 ± 33.05
- Urinary Volume (mL/24 h) [6, 9]: 25.83 ± 12.58 mL/24 h
- Kidney Weight [6, 9]: 0.33 ± 0.079
- Blood glucose at sacrifice [6, 13]: 118.8 ± 10.44
- Urinary Volume (mL/24 h) [6, 13]: 0.33 ± 0.17 mL/24 h
- Kidney Weight [6, 13]: 0.24 ± 0.018
- Blood glucose at sacrifice [6, 10]: 594.28 ± 7.95
- Urinary Volume (mL/24 h) [6, 10]: 24.85 ± 7.78 mL/24 h
- Kidney Weight [6, 10]: 0.38 ± 0.05
- accumulation of lysine 63 ubiquitinated proteins (confocal microscopy) [7, 14]: reduces both processes
- accumulation of lysine 63 ubiquitinated proteins (confocal microscopy) [7, 15]: reduces both processes
- degree of tubular-interstitial fibrosis (Sirius Red Fast Green) (diabetic mice (STZ) [8]; Example 1, FIGS. 1 and 2, NSC697923 3 mg/kg 3 times a week for 6 weeks, vs untreated STZ, 3 mg/kg): significantly reduces; also recorded: capable of reducing
- degree of fibrosis (Sirius Red Fast Green) (diabetic mice (STZ) [8]; [12]): significant reduction

SMILES: CCOC(=O)[C@H](CCc1ccccc1)N[C@@H](C)C(=O)N1[C@H](C(=O)O)C[C@@H]2CCC[C@@H]21 [RAMIPRIL, Ramipril]
- ug urine albumin 24 h (diabetic mice (STZ) [2]; [10]): 388.79 ± 79.78 µg
- ug urine albumin 24 h (diabetic mice (STZ) [2]; [16]): 128.54 ± 55.94 µg
- α-sma expression (confocal microscopy) ([3]; Examples 4 and 5, FIGS. 4a and 5, high glucose 30 mM, Ramipril 10 μM, listed as ACE inhibitors): do not block; also recorded: do not reduce
- α-sma expression (western blotting, normalized to actin) [4]: have no effect
- Blood glucose at sacrifice [6, 10]: 555.71 ± 71.48
- Urinary Volume (mL/24 h) [6, 10]: 29.64 ± 9.51 mL/24 h
- Kidney Weight [6, 10]: 0.37 ± 0.054
- Blood glucose at sacrifice [6, 16]: 112 ± 9.14
- Kidney Weight [6, 16]: 0.242 ± 0.027
- accumulation of lysine 63 ubiquitinated proteins (confocal microscopy) [7, 14]: do not reduce

SMILES: OC[C@H]1O[C@@H](c2ccc(Cl)c(Cc3ccc(O[C@H]4CCOC4)cc3)c2)[C@H](O)[C@@H](O)[C@@H]1O [SGLT2 receptor inhibitors, Empaglifozin]
- α-sma expression (confocal microscopy) [3, 11]: partially reduce
- accumulation of lysine 63 ubiquitinated proteins (confocal microscopy) [7, 15]: do not reduce
